The source of these data is ChEMBL document CHEMBL4834478, “Synthesis and biological evaluation of novel 1,4-benzodiazepin-3-one derivatives as potential antitumor agents against prostate cancer” (Bioorg Med Chem, 2021).

The source made the active and inactive calls. No cut-off for these calls is given here.

Data set [1] has as its system PC-3. Description: Antiproliferative activity against human PC3 cells assessed as inhibition of cell growth measured after 72 hrs by MTT assay. It is filed as functional. For orientation: Tetrazolium dyes change colour on reduction, which living cells bring about.
The nature of data set [2]: Metabolic stability in human liver microsomes assessed as compound degradation at 10 uM measured after 15 mins by HPLC method. It is filed as ADME, Microsome. The note with it: read-out: Drug degradation.
Data set [3] can be described thus: Metabolic stability in human liver microsomes assessed as compound degradation at 10 uM measured after 30 mins by HPLC method. It is filed as ADME, Microsome. The note with it: read-out: Drug degradation. Background: Liver microsomes are a subcellular fraction often used to study metabolism.
Data set [4] deals with PC-3. The data set can be described thus: Antiproliferative activity against human PC3 cells assessed as inhibition of cell proliferation at 2 uM measured after 48 hrs by MTT assay. It is filed as functional, cell-based.
Data set [5] deals with OVCAR-3. Description: Antiproliferative activity against human OVCAR-3 cells assessed as inhibition of cell proliferation at 2 uM measured after 48 hrs by MTT assay. It is filed as functional, cell-based.
Data set [6] relates to PANC-1. The data set can be described thus: Antiproliferative activity against human PANC-1 cells assessed as inhibition of cell proliferation at 2 uM measured after 48 hrs by MTT assay. It is filed as functional, cell-based.
The subject of data set [7] is OVCAR-3. Description: Antiproliferative activity against human OVCAR-3 cells assessed as inhibition of cell proliferation at 15 uM measured after 48 hrs by MTT assay. It is filed as functional, cell-based.
The subject of data set [8] is PANC-1. Description: Antiproliferative activity against human PANC-1 cells assessed as inhibition of cell proliferation at 15 uM measured after 48 hrs by MTT assay. It is filed as functional, cell-based.
Data set [9] has as its system PC-3. The data set can be described thus: Antiproliferative activity against human PC3 cells assessed as cellular metabolic activity at 15 uM measured after 48 hrs by MTT assay. It is filed as functional.
The subject of data set [10] is DU-145. Description: Antiproliferative activity against human DU-145 cells assessed as inhibition of cell proliferation measured after 72 hrs by MTT assay. It is filed as functional, cell-based.
The test system of data set [11] is LNCaP. Description: Antiproliferative activity against human LNCaP cells assessed as inhibition of cell proliferation measured after 72 hrs by MTT assay. It is filed as functional, cell-based.
Data set [12] has as its system LAPC4. The data set can be described thus: Antiproliferative activity against human LAPC4 cells assessed as inhibition of cell proliferation measured after 72 hrs by MTT assay. It is filed as functional, cell-based.
Data set [13] deals with RPTEC. Description: Cytotoxicity against human RPTEC cells assessed as inhibition of cell proliferation measured after 72 hrs by MTT assay. It is filed as cell-based.
Data set [14] deals with PC-3. The data set can be described thus: Induction of apoptosis in human PC-3 cells assessed as increase in Caspase-3 activity using Z-Asp-Glu-Val-Asp-AMC peptide as substrate at 10 uM measured after 24 to 48 hrs by based flourimetric assay. It is filed as functional, cell-based. The conditions noted are these: time 24-48 hrs.
In data set [15] the test system is PC-3. Description: Antitumour activity against human PC-3 cells xenografted in chick chorioallantoic membrane assessed as inhibition of tumour growth at 10 ug, iv measured after 7 days. The note with it: dose 10 µg; time 7 day. It is filed as functional. A general note: In xenograft studies the graft and the host belong to different species.
The subject of data set [16] is PC-3. The data set can be described thus: Antitumour activity against human PC-3 cells xenografted in chick chorioallantoic membrane assessed as inhibition of tumour growth at 50 ug, iv measured after 7 days. The note with it: dose 50 µg; time 7 day. It is filed as functional.
The nature of data set [17]: Toxicity in chick embryo assessed as embryo weight at 10 to 50 ug, iv measured after 7 days. The conditions noted are these: chicken, in vivo, 168 h, dose 10-50 µg, time 7 day. It is filed as organism-based, Gallus gallus.
Data set [18] deals with PC-3. The data set can be described thus: Antiproliferative activity against human PC3 cells assessed as inhibition of cell proliferation at 15 uM measured after 48 hrs by MTT assay. It is filed as functional, cell-based.

Broadly, the GI50 is the concentration giving 50% growth inhibition. For `CC(C)(C)NC(=O)[C@@H]1c2cc([N+](=O)[O-])ccc2N[C@@H](Cc2ccccc2)C(=O)N1Cc1ccccc1`, the GI50 in [1] stood at 7 µM. Further, the metabolised at 0.25 h, 10 µM in data set [2] was found to be 41%. In addition, in data set [3], the metabolised at 0.5 h, 10 µM was 50%.

Consider `CC(C)(C)NC(=O)[C@H]1c2cc([N+](=O)[O-])ccc2N[C@@H](Cc2ccccc2)C(=O)N1Cc1ccccc1`, for which the GI50 in [1] was 10.8 µM. In addition, in [2], the metabolised at 0.25 h, 10 µM came out at 26%. Besides, in data set [3], the metabolised at 0.5 h, 10 µM was found to be 41%.

By TGI is commonly meant how far tumour growth fell short of that in controls. Take `CC(C)(C)NC(=O)C1c2cc([N+](=O)[O-])ccc2N[C@@H](Cc2ccccc2)C(=O)N1Cc1ccccc1` (mixture of isomers): the result in [4], in data set [5], in data set [6], in data set [8], in [10] and in data set [11] was inactive. The outcome in data set [12] was inactive. For the same compound, the result in data set [7] and in [14] was Active. Besides, the Activity in [9] is listed as 30%; in [13] it was “Non-Toxic”; in data set [17], “Non-Toxic”. Also, the GI50 in [1] is 10.2 µM. In addition, the figures for the TGI in data set [15] and in [16] were 45% and 53%, respectively.

As to `CC(C)C[C@@H]1Nc2ccc([N+](=O)[O-])cc2C(C(=O)NC(C)(C)C)N(Cc2ccccc2)C1=O` (mixture of isomers), the outcome in [4], in [5], in [6] and in data set [8] was inactive. In addition, the result in [7] and in data set [18] was Active.

As for `CC(C)C[C@@H]1Nc2ccc([N+](=O)[O-])cc2C(C(=O)NC(C)(C)C)N(Cc2ccc3c(c2)OCO3)C1=O` (mixture of isomers), the result in data set [4], in data set [5], in data set [6] and in [8] was inactive. For the same compound, the outcome in data set [7] and in data set [18] was Active.
